Data published in patent US5068064A, “N-substituted lauramides, their preparation and compositions in which they are present” (Sanofi, priority 1989, dated 1991).
≈ marks a conversion by molar mass, not a printed value.

Key:
[1] = system: Staphylococcus aureus CIP 53154; assay: Minimum bactericidal concentration, first method (30 min contact), S. aureus; format: cell-based; settings: CIP53154, 0.5 h, contact time 30 minutes
Description: (§1) In the two methods, a bacterial inoculum is brought into contact with different dilutions of the product for a determined period of time.
(§2) When the contact period has ended, an aliquot of the mixture of bacterial suspension and product is taken and brought into contact with an agent for neutralizing the bacterial activity of the mixture, either in a solid medium or in a liquid medium. The bactericidal activity of the product, expressed either as a concentration or as a percentage of active principle, corresponds to an absence of bacterial growth.
(§3) The first method makes it possible to define a minimum bactericidal concentration (MBC) or minimum fungicidal concentration (MFC), expressed in μg/ml. The contact time between product and bacterial suspension is 30 minutes. The neutralizer is included in agar.
(§4) The CIP bacterial strains chosen for the study, which are available from the Institut Pasteur, are:
(§5) 1. Staphylococcus aureus
(§6) The strains are maintained on Tryptic Soy Agar® (TSA) marketed by Difco.
(§7) After 24 hours of culture at 37° C., the microbial growth is harvested with the aid of glass beads and 10 ml of diluent containing 1 g of tryptone and 8.5 g of sodium chloride in 1000 ml of distilled water. The suspension formed is shaken and the percentage transmission of light at 620 nm is measured in a spectrophotometer:
(§8) The bacterial inoculum corresponds to a 1:20 dilution of this bacterial suspension.
(§9) Plates containing cupules receive different dilutions of the test product. These dilutions of the test product are brought into contact with the different bacterial suspensions using a multiple site inoculator. After a contact time of 30 minutes, aliquots are transferred with this inoculator to the surface of an agar medium (TSA) placed in Petri dishes containing an activity neutralizer, namely 20 g of lubrol W, 2.5 g of Tween 80, 2.5 g of sodium thiosulfate and 1% of egg yolk in 1000 ml of TSA (Difco). A control for the efficacy of the neutralizer is prepared for each test product by depositing an aliquot of the dilution of the test product on the surface of the culture medium. After drying, the corresponding inoculum is deposited in the same place. An inoculum control is prepared on agar medium with and without neutralizer. The results are read off after 48 hours of incubation at 37° C.
(§10) They indicate the minimum bactericidal concentrations (MBC) for strains 1, 2, 3 and 4 and the minimum fungicidal concentrations (MFC) for strain 5.

[2] = system: Enterococcus faecium CIP 5855; assay: Minimum bactericidal concentration, first method (30 min contact), E. faecium; format: cell-based; settings: CIP5855, 0.5 h, contact time 30 minutes
Description: as §1, §2, §3, §4, §6, §7, §8, §9, §10

[3] = system: Escherichia coli CIP 54127; assay: Minimum bactericidal concentration, first method (30 min contact), E. coli; format: cell-based; settings: CIP54127, 0.5 h, contact time 30 minutes
Description: as §1, §2, §3, §4
(§11) 3. Escherichia coli CIP 54127
as §6, §7, §8, §9, §10

[4] = system: Pseudomonas aeruginosa CIP A22; assay: Minimum bactericidal concentration, first method (30 min contact), P. aeruginosa; format: cell-based; settings: CIPA22, 0.5 h, contact time 30 minutes
Description: as §1, §2, §3, §4
4. Psuedomonas aeruginosa
as §6, §7, §8, §9, §10

[5] = system: Candida albicans CIP 1180; assay: Minimum fungicidal concentration, first method (30 min contact), C. albicans; format: cell-based; settings: CIP1180, 0.5 h, contact time 30 minutes
Description: as §1, §2, §3, §9
The antifungal activity of the products according to the invention was also determined using the method described above. A representative strain of yeast was selected for the study: Candida albicans CIP 1180 (strain 5).
This is maintained on Sabouraud's Dextrose Agar marketed by Difco. The technique is identical to that described for studying the antibacterial activity. After 48 hours of culture at 37° C., the microbial growth is harvested with the aid of glass beads and 5 ml of diluent containing 1 g of tryptone and 8.5 g of sodium chloride in 1000 ml of distilled water; a further 5 ml of the diluent are then added. This suspension gives a percentage transmission of light at 620 nm of 2 to 3% in a spectrophotometer.
The inoculum corresponds to a 1:10 dilution of this microbial suspension. A 1:100 dilution of this suspension, observed between slide and cover glass through a No. 40 microscope objective, must show 10 cells per field, which corresponds to 1,000,000 yeasts per ml.
as §10

[6] = system: Staphylococcus aureus CIP 53154; assay: Percentage of bactericidal active principle, second method (5 min contact), S. aureus; format: cell-based; settings: destruction of 99.99%
Description: as §1, §2
(§12) The second method makes it possible to define a percentage of bactericidal or fungicidal active principle by means of a simplified and automated adaptation of Afnor standards NF T 72-150 and NF T 72-170. In this method, the bactericidal activity of the product is determined with and without interfering substances. It is based on assessing the destruction of 99.99% of the initial bacteria by the product in 5 minutes. The interfering substances are of the protein type and are chosen for the actual conditions of application of this type of product. The contact time between product and bacterial suspension is 5 minutes, the neutralization step is 10 minutes and subculture is effected in a liquid medium.
(§13) The chosen bacterial strains are:
as §5, §6
(§14) The strains are harvested in a manner identical to the first method; these suspensions contain between 1.10^8 and 3.10^8 cells per milliliter. Appropriate dilutions make it possible to have a suspension containing 2 to 6.10^3 cells per milliliter.
(§15) The experiment is performed in microtiter plates; it comprises two steps. The first step, called the preliminary test, checks that the product is indeed neutralized. In the test proper, the different dilutions of the product are brought into contact with 2 to 6.10^3 cells per milliliter of the bacterial suspension in the second row of the microtiter plate. After a contact time of 5 minutes, an aliquot is transferred to the third row containing the neutralizer adapted to the product and to the strain. After a contact time of 10 minutes, aliquots are transferred to the last 5 rows containing Tryptic Soy Broth® (TSB) from Difco.
(§16) The interfering substances tested are a mixture of albumin and yeast extract. In the first row of the microplate, these proteins are brought into contact for 5 minutes with the different dilutions of the product. After this step, the same principle as above is applied: 5 minutes of contact with the germ, 10 minutes of contact with the neutralizer, transfer to TSB.

[7] = system: Enterococcus faecium CIP 5855; assay: Percentage of bactericidal active principle, second method (5 min contact), E. faecium; format: cell-based; settings: destruction of 99.99%
Description: as §1, §2, §12, §13, §6, §14, §15, §16

[8] = system: Escherichia coli CIP 54127; assay: Percentage of bactericidal active principle, second method (5 min contact), E. coli; format: cell-based; settings: destruction of 99.99%
Description: as §1, §2, §12, §13, §11, §6, §14, §15, §16

[9] = system: Pseudomonas aeruginosa CIP A22; assay: Percentage of bactericidal active principle, second method (5 min contact), P. aeruginosa; format: cell-based; settings: destruction of 99.99%
Description: as §1, §2, §12, §13
4. Pseudomonas aeruginosa
as §6, §14, §15, §16

[10] = system: Candida albicans CIP 1180; assay: Percentage of fungicidal active principle, second method (5 min contact), C. albicans; format: cell-based
Description: as §1, §2, §12, §15, §16
The antifungal activity of the products according to the invention was also determined with and without interfering substances using the method described above. The same strain was used as for the first technique, namely Candida albicans CIP 1180. It is harvested in an identical manner to that described in the first method.

[11] = system: Mycobacterium smegmatis CIP 7326; assay: Percentage of bactericidal active principle, second method (5 min contact), M. smegmatis; format: cell-based; settings: destruction of 99.99%
Description: as §1, §2, §12, §13
5. Mycobacterium smegmatis
as §6, §14, §15, §16

Product solubility = settings: water
[12] = Simple: without interfering substances, * activity limited to the zone indicated
[13] = with proteins as interfering substances
[14] = Simple: without interfering substances

SMILES	MBC [1] [µg/mL]	MBC [2] [µg/mL]	MBC [3] [µg/mL]	MBC [4] [µg/mL]	MFC [5] [µg/mL]	Bactericidal activity, results in percentage of active principle, S. aureus [6, 12]	Bactericidal activity, results in percentage of active principle, S. aureus [6, 13]	Bactericidal activity, results in percentage of active principle, E. faecium [7, 14]	Bactericidal activity, results in percentage of active principle, E. faecium [7, 13]	Bactericidal activity, results in percentage of active principle, E. coli [8, 14]	Bactericidal activity, results in percentage of active principle, E. coli [8, 13]	Bactericidal activity, results in percentage of active principle, P. aeruginosa [9, 14]	Bactericidal activity, results in percentage of active principle, P. aeruginosa [9, 13]	Fungicidal activity, results in percentage of active principle, C. albicans [10, 14]	Fungicidal activity, results in percentage of active principle, C. albicans [10, 13]	Bactericidal activity, results in percentage of active principle, M. smegmatis [11, 12]	Bactericidal activity, results in percentage of active principle, M. smegmatis [11, 13]	solubility (Product solubility) [mg/mL]
CCCCCCCCCCCC(=O)NCCN1CCC(Cc2ccccc2)CC1.Cl [SR 44944 A, N-[2-(4-Benzylpiperidino)ethyl]lauramide hydrochloride]	10	10	10	50	10	< 0.01 percentage of active principle	0.1 percentage of active principle	< 0.01 percentage of active principle	0.03 percentage of active principle	0.01 percentage of active principle	< 0.01 percentage of active principle	< 0.01 percentage of active principle	0.25 percentage of active principle	0.01 percentage of active principle	0.06 percentage of active principle	> 0.5 percentage of active principle	0.06 percentage of active principle	–
CCCCCCCCCCCC(=O)NCCN(C)Cc1ccccc1 [SR 45525]	50 (≈ 144 µM)	10 (≈ 28.9 µM)	10 (≈ 28.9 µM)	50 (≈ 144 µM)	50 (≈ 144 µM)	0.05 percentage of active principle	0.5 percentage of active principle	0.01 percentage of active principle	0.5 percentage of active principle	0.005 percentage of active principle	0.1 percentage of active principle	0.005 percentage of active principle	0.5 percentage of active principle	0.05 percentage of active principle	0.5 percentage of active principle	–	0.1 percentage of active principle	> 50
